Measured values: patent US12595269B2, “Morpholine-like monoamine releasers” (Solvonis Therapeutics Ireland Holdings Limited, priority 2022, dated 2026)
≈ marks a conversion by molar mass, not a printed value. Like-named read-outs stand apart in the source and are kept apart here.

Assays:
[1] = Solubility in PBS pH 7.4 by HPLC-UV; type: physicochemical; conditions: PBS buffer, aqueous buffer, kinetic from dmso stock; PBS pH 7.4, about 2% DMSO, 120 minutes at room temperature
Protocol: Methods and Procedure: This study was designed in compliance with previously described procedures to assure data integrity and adherence to GLP principles. Control compounds included ibuprofen as a reference for high solubility and progesterone as a reference for low solubility. Stock solutions of compounds described herein (20 mM) were prepared in DMSO, on the same day of the experiment when feasible.
These solutions were compared with an external standard solution of known concentration via HPLC-UV To prepare the standard, 4 μL from a 20 mM compound stock solution was added to DMSO in a vial/well, and mixed with shaking at room temperature for 10 minutes. […]
Concentrations were determined by comparing UV absorbance of the test solution and of the known standard solution following HPLC separation using a generic fast gradient method employing a DAD detector and UV detection at 230 and 254 nm. […] The solubility of each compound was expressed as the ratio of compound amount in the sample test solution to the amount of compound in the standard solution, calculated from the equation “solubility of sample=peak area of sample/peak area of standard×concentration of standard.”

CYP3A4 = target: T1, CYP3A4 (Homo sapiens, UniProt P08684); experiment: CYP450 inhibition, fluorescent probes 7BQ and DBOMF: CYP3A4; type: in vitro ADME; conditions: for IC50 at 10 min: human
T1 construct: purchased Life Technologies P2377; host or cells: Baculosomes
Protocol: Methods and Procedure: The study was performed in agreement with previously described procedures to assure data integrity and adherence to GLP standards. Briefly, recombinant human CYP450 isoenzymes were used to metabolize pro-fluorescent probe substrates to fluorescent products. IC50 values determined from the effect of test compounds on the metabolism of these probe substrates were then used to determine inhibitory potency against CYP450 isoforms.
The test system was based on a three-step procedure with a “mix and read” format, where PGP-432,TI reaction and reading were performed at 37° C. The assays described herein measure in vitro inhibitory effects (pIC50) of compounds on the human P450 isoforms (1A2, 2B6, 2C8, 2C9, 2C19, 2D6, 3A4) expressed in recombinant microsomes. Pro-fluorescent probe substrates were metabolized to fluorescent products by the enzymes. Fluorescence was measured in kinetic mode (1 read/minutes for 10 minutes), and the fluorescence rate was calculated.
Inhibition of the fluorescent signal resulting from P450 activation indicated inhibitory activity and facilitated calculation of the compound pIC50. […] Concentration response curves (CRCs) of compounds were run on two different test occasions (n=2) by preparing serial dilutions from the dame compound stock solution.
To prepare the compound plate, test compounds serial dilutions 1 to 3 were performed from a 10 mM stock solution in DMSO by Biomek FX to generate 10 point CRC with the highest concentrations in columns 3 and 13.
100% DMSO was placed in columns 1 and 2 and used for assay low controls. CYP inhibitor (10 mM miconazole solution in DMSO) was placed in columns 23 and 24 and served as an assay high controls. 1 μL copy plates were then stamped into V-bottom drug plates at a concentration that is 200 fold the final assay concentration. The copy plates were diluted prior to the experiment with assay buffer to reach 4 times the final assay concentration (2% w/v DMSO).
A reference compound (e.g., miconazole) was included in each compound plate in row A, column 3 and 13. The reference compound was diluted and stamped together with test compounds. The final concentrations of the 10 point CRCs of test compounds in the assay plate were 5.00E-05; 1.67E-05; 5.56E-06; 1.85E-06; 6.17E-07; 2.06E-07; 6.86E-08; 2.29E-08; 7.62E-09 and 2.54E-09, respectively. […]
Microsomes were added to the buffer prior to the substrate addition. […] For fluorescence measurement, 10 μL/well of the test compounds were transferred from the compound plate to the assay plate using Biomek FX and the appropriate protocol. […]
10 μL/well of the cofactor was then added to the assay plate using the Multidrop before placing the assay plate in the plate reader EnVision to measure fluorescence. […]

T1 sequence (P08684 whole entry): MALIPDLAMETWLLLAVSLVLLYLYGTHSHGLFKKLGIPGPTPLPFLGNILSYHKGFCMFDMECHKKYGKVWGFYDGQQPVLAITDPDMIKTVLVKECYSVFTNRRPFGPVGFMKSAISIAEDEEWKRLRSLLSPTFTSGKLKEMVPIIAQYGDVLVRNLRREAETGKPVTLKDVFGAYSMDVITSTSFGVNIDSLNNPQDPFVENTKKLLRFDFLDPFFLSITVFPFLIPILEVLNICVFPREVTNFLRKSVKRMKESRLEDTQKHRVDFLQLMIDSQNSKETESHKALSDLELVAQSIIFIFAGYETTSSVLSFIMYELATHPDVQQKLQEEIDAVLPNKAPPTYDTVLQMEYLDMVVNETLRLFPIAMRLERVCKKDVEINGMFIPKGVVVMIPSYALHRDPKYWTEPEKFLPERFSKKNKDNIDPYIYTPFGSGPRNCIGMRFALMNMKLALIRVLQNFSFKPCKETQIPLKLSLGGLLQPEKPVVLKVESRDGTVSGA

SMILES | solubility at 120 min [1] | IC50 (CYP3A4; recombinant human CYP3A4, substrate 7BQ, read-out: CYP450 Inhibition (IC50), CYP3A4 (7BQ)) | IC50 (CYP3A4; recombinant human CYP3A4, substrate DBOMF, read-out: CYP450 Inhibition (IC50), CYP3A4 (DBOMF)) | IC50 at 10 min (CYP3A4; recombinant CYP3A4 Baculosomes, pH 8, probe Vivid DBOMF) | IC50 at 10 min (CYP3A4; recombinant microsomes expressing CYP3A4, probe 7BQ)
Clc1ccc(C23CNC(CO2)C3)cc1Cl (stereo not drawn) [522A, 1-(3,4-dichlorophenyl)-2-oxa-5-azabicyclo[2.2.1]heptane] | 384 µM (≈ 93.6 µg/mL) | > 50 µM | > 50 µM | – | –
CNC(C)Cc1ccc2c(c1)OCO2 (stereo not drawn) [MDMA, reference compound] | 386 µM (≈ 74.6 µg/mL) | – | – | 50 µM | 50 µM
